Key:
[1] = cited from earlier work
[2] = system: HLA-DR alleles; parameters: species or system human; details: 15 HLA-DR alleles analyzed, IC50 of 1000 nM as binding threshold
[3] = target: HLA-DQA1*01:02/B1*06:02 (Homo sapiens, UniProt P01909+P01920, A157G/A45G/C70R/E118A/E183D/E77G/F83G/G63E/H151Q/H199R/H252R/H253Q/I129T/I235V/I88M/INS77G/K197Q/L117V/L119F/L178F/L71W/L74F/L85Q/L91A/L98M/N214S/P87R/Q116E/Q76K/R102G/R240Q/R75S/R78G/S102Y/S185I/S41F/S97I/T121G/T122I/T172A/T86R/V229M/V68A/V73E/Y34C/Y41F/Y58L); assay type: binding; details: threshold IC50 1000 nM
HLA-DQA1*01:02/B1*06:02, sequence (P01920 33-261 with the stated changes limits assumed, other chains not shown): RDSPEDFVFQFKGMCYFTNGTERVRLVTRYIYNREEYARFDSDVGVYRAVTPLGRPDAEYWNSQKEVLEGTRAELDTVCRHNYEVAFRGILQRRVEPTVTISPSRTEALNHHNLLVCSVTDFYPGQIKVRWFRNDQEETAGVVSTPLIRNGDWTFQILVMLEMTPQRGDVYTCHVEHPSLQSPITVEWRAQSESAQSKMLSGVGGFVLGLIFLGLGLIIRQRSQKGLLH

[4] = system: PBMCs from healthy donors; assay: Two-week re-stimulation T cell assay with IFN-γ, IL-5 and IL-10 fluorospot; assay type: cell-based, human; details: for Frequency of responding donors (all cytokines) / Frequency of responding donors compared to the non-acylated peptide (in words) / Magnitude of the response (SFC, all cytokines) compared to the non-acylated peptide (in words): peptide 50 μg/ml, IFN-γ/IL-5/IL-10 fluorospot, n = 22; for Frequency of responding donors (all cytokines): 14 days stimulation with IL-2, re-stimulation 20h, one positive hit for one cytokine equals a positive donor; for Frequency of responding donors compared to the non-acylated peptide (in words) / Magnitude of the response (SFC, all cytokines) compared to the non-acylated peptide (in words): re-stimulation
[5] = human, in vivo; cited from earlier work

## PKYVKQNTLKLAT [Peptide 1]
[1]
  Donors with an immunogenic response: approximately 30%
[2]
  HLA-DR alleles that bound the peptide with an affinity of 1000 nM or better (number/number analyzed): 12/15
[2]; radiolabeled peptide competition, two-day incubation, three or more independent experiments
  HLA-DR alleles that bound the peptide with an affinity of 1000 nM or better: 80%
[3]
  HLA-DQA1*01:02/B1*06:02 binding capacity (binder / non-binder): non-binder
[4]; peptide 5 μg/ml, 14 days stimulation, re-stimulation 20 hours, fluorospot, seven donors
  Cytokine response (IFN-γ, IL-5, IL-10 secreting cells) in words: significant numbers of IFN-γ, IL-5 and IL-10 producing cells

## Peptide 7: Exendin-4 (1–39), 39-aa peptide used for the treatment of diabetes mellitus type 2, non-acylated
[5]
  Patients treated with the compound that show an immunogenic response: 40–60%
[4]
  Frequency of responding donors (all cytokines): 40%

## Peptide 10: Exendin-4 acylated with C18 via Oeg-Oeg-LγGlu at 20 (WT R to K)
[4]; 14 days stimulation
  Frequency of responding donors compared to the non-acylated peptide (in words): further decreases
  Magnitude of the response (SFC, all cytokines) compared to the non-acylated peptide (in words): decreased magnitudes

## Peptide 11: Exendin-4 acylated with C18 via Oeg-Oeg-LγGlu at 27 (K)
[4]
  Frequency of responding donors (all cytokines): None

## Peptide 12: Exendin-4 acylated with C18 via Oeg-Oeg-LγGlu at C-terminus
[4]
  Frequency of responding donors (all cytokines): 10%

## Peptide 13: Exendin-4 acylated with 2 x C18 via Oeg-Oeg-LγGlu at 12 (K) + 27 (K)
[4]; 14 days stimulation
  Frequency of responding donors compared to the non-acylated peptide (in words): decreased
  Magnitude of the response (SFC, all cytokines) compared to the non-acylated peptide (in words): decreased

## QLLDRGATALVLQVLNVPRLMTQD [Peptide 14, Vatreptacog alfa (285–309) peptide fragment, 25-aa, non-acylated]
[4]
  Frequency of responding donors (all cytokines): 45%
